Source: patent US20250257053A1, “PESTICIDALLY ACTIVE HETEROCYCLIC DERIVATIVES WITH SULFUR CONTAINING SUBSTITUENTS” (SYNGENTA CROP PROTECTION AG, priority 2021, published 2025)

Experiments:
Type in all cases: in vivo
[1] = test system: Chilo suppressalis (Striped Rice Stemborer); assay: Activity against Chilo suppressalis (striped rice stemborer), artificial diet in 24-well microtiter plates; details: 144 h, application rate 200 ppm, L2 larvae, 6 days after infestation, in comparison to untreated samples, read-out: control (at least one of mortality, anti-feedant effect, growth inhibition)
Procedure: Example B1: Activity Against Chilo suppressalis (Striped Rice Stemborer)
24-well microtiter plates with artificial diet were treated with aqueous test solutions prepared from 10′000 ppm DMSO stock solutions by pipetting. After drying, the plates were infested with L2 larvae (6-8 per well). The samples were assessed for mortality, anti-feeding effect, and growth inhibition in comparison to untreated samples 6 days after infestation. Control of Chilo suppressalis by a test sample is given when at least one of the categories mortality, anti-feedant effect, and growth inhibition is higher than the untreated sample.

[2] = test system: Diabrotica Balteata (Corn Root Worm); assay: Activity against Diabrotica balteata (corn root worm), sprayed maize sprouts on agar; details: 96 h, application rate 200 ppm, L2 larvae, 4 days after infestation, in comparison to untreated samples, read-out: effect in at least one of the two categories (mortality or growth inhibition)
Procedure: Example B2: Activity Against Diabrotica Balteata (Corn Root Worm)
Maize sprouts placed onto an agar layer in 24-well microtiter plates were treated with aqueous test solutions prepared from 10′000 ppm DMSO stock solutions by spraying. After drying, the plates were infested with L2 larvae (6 to 10 per well). The samples were assessed for mortality and growth inhibition in comparison to untreated samples 4 days after infestation.

[3] = test system: Euschistus heros (Neotropical Brown Stink Bug); assay: Activity against Euschistus heros (neotropical brown stink bug), sprayed soybean leaves on agar; details: 120 h, application rate 200 ppm, N2 nymphs, 5 days after infestation, in comparison to untreated samples, read-out: effect in at least one of the two categories (mortality or growth inhibition)
Procedure: Example B3: Activity Against Euschistus heros (Neotropical Brown Stink Bug)
Soybean leaves on agar in 24-well microtiter plates were sprayed with aqueous test solutions prepared from 10′000 ppm DMSO stock solutions. After drying the leaves were infested with N2 nymphs. The samples were assessed for mortality and growth inhibition in comparison to untreated samples 5 days after infestation.

[4] = test system: Myzus persicae (Green Peach Aphid); assay: Activity against Myzus persicae (green peach aphid), feeding/contact activity, sunflower leaf discs; details: foliar, 144 h, application rate 200 ppm, aphid population of mixed ages, 6 days after infestation
Procedure: Example B4: Activity Against Myzus persicae (Green Peach Aphid) Feeding/Contact Activity
Sunflower leaf discs were placed onto agar in a 24-well microtiter plate and sprayed with aqueous test solutions prepared from 10′000 ppm DMSO stock solutions. After drying, the leaf discs were infested with an aphid population of mixed ages. The samples were assessed for mortality 6 days after infestation.

[5] = test system: Myzus persicae (Green Peach Aphid); assay: Activity against Myzus persicae (green peach aphid), systemic activity, pea seedling roots in test solution; details: 144 h, test rate 24 ppm, aphid population of mixed ages, 6 days after placing seedlings into test solutions
Procedure: Example B5: Activity Against Myzus persicae (Green Peach Aphid) Systemic Activity
Roots of pea seedlings infested with an aphid population of mixed ages were placed directly into aqueous test solutions prepared from 10′000 DMSO stock solutions. The samples were assessed for mortality 6 days after placing seedlings into test solutions.

[6] = test system: Plutella xylostella (Diamond Back Moth); assay: Activity against Plutella xylostella (diamond back moth), artificial diet in 24-well microtiter plates; details: 192 h, application rate 200 ppm, eggs, 8 days after infestation, in comparison to untreated samples, read-out: effect in at least one of the two categories (mortality or growth inhibition)
Procedure: Example B6: Activity Against Plutella xylostella (Diamond Back Moth)
24-well microtiter plates with artificial diet were treated with aqueous test solutions prepared from 10′000 ppm DMSO stock solutions by pipetting. After drying, Plutella eggs were pipetted through a plastic stencil onto a gel blotting paper and the plate was closed with it. The samples were assessed for mortality and growth inhibition in comparison to untreated samples 8 days after infestation. The following compounds gave an effect of at least 80% in at least one of the two categories (mortality or growth inhibition) at an application rate of 200 ppm: P2, P3, P4, P5, P7, P9, P10, P11, P13, P14, P15.

[7] = test system: Spodoptera littoralis (Egyptian Cotton Leaf Worm); assay: Activity against Spodoptera littoralis (Egyptian cotton leaf worm), sprayed cotton leaf discs; details: foliar, 72 h, application rate 200 ppm, five L1 larvae, 3 days after infestation, in comparison to untreated samples, read-out: control (at least one of mortality, anti-feedant effect, growth inhibition)
Procedure: Example B7: Activity Against Spodoptera littoralis (Egyptian Cotton Leaf Worm)
Cotton leaf discs were placed onto agar in 24-well microtiter plates and sprayed with aqueous test solutions prepared from 10′000 ppm DMSO stock solutions. After drying the leaf discs were infested with five L1 larvae. The samples were assessed for mortality, anti-feeding effect, and growth inhibition in comparison to untreated samples 3 days after infestation. Control of Spodoptera littoralis by a test sample is given when at least one of the categories mortality, anti-feedant effect, and growth inhibition is higher than the untreated sample.

CCS(=O)(=O)c1cccnc1-c1coc2cc(C(F)(F)F)ccc2c1=O [P2, 3-(3-ethylsulfonyl-2-pyridyl)-7-(trifluoromethyl)chromen-4-one]
≥ 80%: percent control (mortality, anti-feedant effect or growth inhibition) at 200 ppm [1] | percent control (mortality or growth inhibition) at 200 ppm [2] | percent control (mortality or growth inhibition) at 200 ppm [3] | mortality at 200 ppm [4] | mortality at 24 ppm [5] | effect (mortality or growth inhibition) at 200 ppm [6] | percent control (mortality, anti-feedant effect or growth inhibition) at 200 ppm [7]

CCSc1cc(C2(C#N)CC2)cnc1-c1coc2cc(C(F)(F)F)ccc2c1=O [P3, 1-[5-ethylsulfanyl-6-[4-oxo-7-(trifluoromethyl)chromen-3-yl]-3-pyridyl]cyclopropane-carbonitrile]
≥ 80%: percent control (mortality or growth inhibition) at 200 ppm [2] | percent control (mortality or growth inhibition) at 200 ppm [3] | mortality at 200 ppm [4] | effect (mortality or growth inhibition) at 200 ppm [6] | percent control (mortality, anti-feedant effect or growth inhibition) at 200 ppm [7]

CCS(=O)(=O)c1cc(C2(C#N)CC2)cnc1-c1coc2cc(C(F)(F)F)ccc2c1=O [P4, 1-[5-ethylsulfonyl-6-[4-oxo-7-(trifluoromethyl)chromen-3-yl]-3-pyridyl]cyclopropane-carbonitrile]
≥ 80%: percent control (mortality, anti-feedant effect or growth inhibition) at 200 ppm [1] | percent control (mortality or growth inhibition) at 200 ppm [2] | percent control (mortality or growth inhibition) at 200 ppm [3] | mortality at 200 ppm [4] | mortality at 24 ppm [5] | effect (mortality or growth inhibition) at 200 ppm [6] | percent control (mortality, anti-feedant effect or growth inhibition) at 200 ppm [7]

CCS(=O)(=O)c1cc(C(C)(C)C#N)cnc1-c1coc2cc(C(F)(F)F)ccc2c1=O [P5, 2-[5-ethylsulfonyl-6-[4-oxo-7-(trifluoromethyl)chromen-3-yl]-3-pyridyl]-2-methyl-propane-nitrile]
≥ 80%: percent control (mortality, anti-feedant effect or growth inhibition) at 200 ppm [1] | percent control (mortality or growth inhibition) at 200 ppm [2] | percent control (mortality or growth inhibition) at 200 ppm [3] | mortality at 200 ppm [4] | mortality at 24 ppm [5] | effect (mortality or growth inhibition) at 200 ppm [6] | percent control (mortality, anti-feedant effect or growth inhibition) at 200 ppm [7]

CCS(=O)(=O)c1cc(C2(C#N)CC2)cnc1-c1c(C)oc2cc(C(F)(F)F)ccc2c1=O [P7, 1-[5-ethylsulfonyl-6-[2-methyl-4-oxo-7-(trifluoromethyl)chromen-3-yl]-3-pyridyl] cyclopropane-carbonitrile]
≥ 80%: percent control (mortality, anti-feedant effect or growth inhibition) at 200 ppm [1] | percent control (mortality or growth inhibition) at 200 ppm [2] | percent control (mortality or growth inhibition) at 200 ppm [3] | mortality at 200 ppm [4] | mortality at 24 ppm [5] | effect (mortality or growth inhibition) at 200 ppm [6] | percent control (mortality, anti-feedant effect or growth inhibition) at 200 ppm [7]

CCS(=O)(=O)c1cc(Br)cnc1-c1c(C)oc2cc(C(F)(F)F)ccc2c1=O [P8, 3-(5-bromo-3-ethylsulfonyl-2-pyridyl)-2-methyl-7-(trifluoromethyl) chromen-4-one]
≥ 80%: percent control (mortality, anti-feedant effect or growth inhibition) at 200 ppm [1] | percent control (mortality, anti-feedant effect or growth inhibition) at 200 ppm [7]

CCS(=O)(=O)c1cc(Br)cnc1-c1coc2cc(C(F)(F)F)ccc2c1=O [P9, 3-(5-bromo-3-ethylsulfonyl-2-pyridyl)-7-(trifluoromethyl)-chromen-4-one]
≥ 80%: percent control (mortality, anti-feedant effect or growth inhibition) at 200 ppm [1] | percent control (mortality or growth inhibition) at 200 ppm [2] | effect (mortality or growth inhibition) at 200 ppm [6] | percent control (mortality, anti-feedant effect or growth inhibition) at 200 ppm [7]

CCS(=O)(=O)c1ccc(C2CC2)nc1-c1coc2cc(C(F)(F)F)ccc2c1=O [P10, 3-(6-cyclopropyl-3-ethylsulfonyl-2-pyridyl)-7-(trifluoromethyl) chromen-4-one]
≥ 80%: percent control (mortality, anti-feedant effect or growth inhibition) at 200 ppm [1] | percent control (mortality or growth inhibition) at 200 ppm [2] | mortality at 200 ppm [4] | effect (mortality or growth inhibition) at 200 ppm [6] | percent control (mortality, anti-feedant effect or growth inhibition) at 200 ppm [7]

CCS(=O)(=O)c1cc(C2CC2)cnc1-c1coc2cc(C(F)(F)F)ccc2c1=O [P11, 3-(5-cyclopropyl-3-ethylsulfonyl-2-pyridyl)-7-(trifluoromethyl) chromen-4-one]
≥ 80%: percent control (mortality, anti-feedant effect or growth inhibition) at 200 ppm [1] | percent control (mortality or growth inhibition) at 200 ppm [2] | percent control (mortality or growth inhibition) at 200 ppm [3] | mortality at 200 ppm [4] | mortality at 24 ppm [5] | effect (mortality or growth inhibition) at 200 ppm [6] | percent control (mortality, anti-feedant effect or growth inhibition) at 200 ppm [7]

CCS(=O)(=O)c1cc(C2(C#N)CC2)cnc1-c1coc2cc(OC(F)F)ccc2c1=O [P13, 1-[6-[7-(difluoromethoxy)-4-oxo-chromen-3-yl]-5-ethylsulfonyl-3-pyridyl]-cyclo-propanecarbonitrile]
≥ 80%: percent control (mortality, anti-feedant effect or growth inhibition) at 200 ppm [1] | percent control (mortality or growth inhibition) at 200 ppm [2] | percent control (mortality or growth inhibition) at 200 ppm [3] | mortality at 200 ppm [4] | mortality at 24 ppm [5] | effect (mortality or growth inhibition) at 200 ppm [6] | percent control (mortality, anti-feedant effect or growth inhibition) at 200 ppm [7]

CCS(=O)(=O)c1cc(C2(C#N)CC2)cnc1-c1cn(C)c2cc(C(F)(F)F)ccc2c1=O [P14, 1-[5-ethylsulfonyl-6-[1-methyl-4-oxo-7-(trifluoromethyl)-3-quinolyl]-3-pyridyl]-cyclo-propanecarbonitrile]
≥ 80%: percent control (mortality, anti-feedant effect or growth inhibition) at 200 ppm [1] | percent control (mortality or growth inhibition) at 200 ppm [2] | percent control (mortality or growth inhibition) at 200 ppm [3] | mortality at 200 ppm [4] | mortality at 24 ppm [5] | effect (mortality or growth inhibition) at 200 ppm [6] | percent control (mortality, anti-feedant effect or growth inhibition) at 200 ppm [7]

CCS(=O)(=O)c1cc(C2(C#N)CC2)cnc1-c1coc2cc(OC(F)(F)F)ccc2c1=O [P15, 1-[5-ethylsulfonyl-6-[4-oxo-7-(trifluoromethoxy)chromen-3-yl]-3-pyridyl]-cyclopropane-carbonitrile]
≥ 80%: percent control (mortality, anti-feedant effect or growth inhibition) at 200 ppm [1] | percent control (mortality or growth inhibition) at 200 ppm [2] | percent control (mortality or growth inhibition) at 200 ppm [3] | mortality at 200 ppm [4] | effect (mortality or growth inhibition) at 200 ppm [6] | percent control (mortality, anti-feedant effect or growth inhibition) at 200 ppm [7]

CCS(=O)(=O)c1cc(-c2ccc(F)cc2)cnc1-c1coc2cc(C(F)(F)F)ccc2c1=O [P16, 3-[3-ethylsulfonyl-5-(4-fluorophenyl)-2-pyridyl]-7-(trifluoromethyl)chromen-4-one]
≥ 80%: percent control (mortality, anti-feedant effect or growth inhibition) at 200 ppm [7]
